Reference: patent publication US7838288B2, “Modulators of odorant receptors” (Duke University, priority 2004, dated 2010)

What was measured:
[1] = test system: Eight other ORs located near the IVA locus; experiment: Luciferase assay, other ORs near the IVA locus; type: cell-based
Source text: In experiments conducted during the course of the present invention, not only three class I ORs (S46, MOR23-1, MOR31-4) but also MOR203-1, a class II OR, responded to nonanoic acid. The present invention is not limited to a particular mechanism. Indeed, an understanding of the mechanism is not necessary to practice the present invention. […] Olfr62 is one of the closely related ORs located near or at the IVA locus, implicated in isovaleric acid sensation (see, e.g., Griff, I. C., and Reed, R. R. (1995) Cell 83, 407-414; Zhang, X., and Firestein, S. (2002) Nat Neurosci 5, 124-133; each herein incorporated by reference in their entireties). […] The present invention is not limited to a particular mechanism. Indeed, an understanding of the mechanism is not necessary to practice the present invention.
Dual-Glo system (Promega) for luciferase assay was used. CRE-Luciferase (Stratagene) was used to measure the receptor activities. Renilla luciferase driven by constitutively active SV40 promoter (pRL-SV40: Promega) was used as an internal control. […] Luminescence was measured using Wallac Victor 1420 (Perkin-Elmer). Normalized luciferase activity was calculated as [Luc (N)-Luc (0)]/RL (N), where Luc (N)=Luminescent count of a certain well, Luc (0)=Luminescent count without odorant for each OR, and RL (N)=Luminescent count of Renilla Luciferase of each well. […]

olfr62 = experiment: CRE-luciferase reporter gene assay, olfr62; type: cell-based, mouse; conditions: Hana3A cells
Procedure: Four ORs (S6/79, S18, S46 and S50) previously assayed using other techniques (see, e.g., Malnic, B., et al. (1999) Cell 96, 713-723; herein incorporated by reference in its entirety) were tested against an assay panel of aliphatic alcohols, aldehydes and acids and some other odorants. Additionally, five “orphan” class I ORs (MOR23-1, MOR31-4, MOR31-6, MOR32-5 and MOR32-11) whose cognate ligands were unknown were tested. At a suprathreshold concentration of 100 uM, all these ORs were odorant selective, responding to only a small subset of the odorants tested (see FIG. 11A). This specificity was retained at lower, more physiologically relevant concentrations. Many of these ORs responded to odorants present in micromolar concentrations. The cell-surface expression of these ORs by living-cell immunofluorescence were evaluated. Some ORs (S18, MOR31-4, MOR31-6 and MOR32-5) were strongly expressed while other ORs (S6, S50, MOR23-1, MOR32-11) were weakly expressed (see FIG. 12). The present invention is not limited to a particular mechanism. Indeed, an understanding of the mechanism is not necessary to practice the present invention. […] Finally, two additional orphan class II ORs, MOR203-1 and olfr62, were tested against a panel of 139 odorants. […] Olfr62 responded to coumarine and piperonal (see FIG. 11C). […] When parental 293T cells for these ORs were used in this luciferase assay, little or no response to the odorants was observed. The present invention is not limited to a particular mechanism. Indeed, an understanding of the mechanism is not necessary to practice the present invention.
Dual-Glo system (Promega) for luciferase assay was used. CRE-Luciferase (Stratagene) was used to measure the receptor activities. Renilla luciferase driven by constitutively active SV40 promoter (pRL-SV40: Promega) was used as an internal control. Cells were plated on poly-D-lysine coated 96 well plates (BIOCOAT, Beckton Dickinson). After 8 hours (for experiments shown in FIGS. 8B and 8C) or 12 hours (for experiments shown in FIG. 8D and FIG. 11) after transfection, the medium was replaced with CD293 chemically defined medium (Invitrogen) and the plates were incubated for one hour at 37 degrees C. The medium was replaced with 50 ul of odorant solutions dissolved in CD293 and incubated for 10 hours (for experiments shown in FIGS. 8B and 8C) or 4 hours (for experiments shown in FIG. 8D and FIG. 11) at 37 degrees C. The manufacture's protocol for measuring luciferase and Renilla luciferase activities was followed. Luminescence was measured using Wallac Victor 1420 (Perkin-Elmer). Normalized luciferase activity was calculated as [Luc (N)-Luc (0)]/RL (N), where Luc (N)=Luminescent count of a certain well, Luc (0)=Luminescent count without odorant for each OR, and RL (N)=Luminescent count of Renilla Luciferase of each well. For cAMP assays, cells were plated onto 24-well plate. […]. Prism software (Graphpad) was used for data analysis. […]

response of eight other ORs near the IVA locus to odorant [1]: none of them responded | response of olfr62 to odorant (luciferase) (olfr62): did not respond
Compound: CC(C)CC(=O)O [isovaleric acid, Isovaleric acid]
